For assay [1], the target named is KRAS-PI3Kα interaction (KRAS-Q25A binding to avi-tagged full length PI3Kα) (Homo sapiens (Human), UniProt P42336). Kind of assay: Disrupting KRAS-PI3Kα interaction by SPR inhibition assay. Particulars: KRAS-Q25A at 20 μM, 25° C. Background: SPR reads the build-up and loss of mass on a sensor chip optically.
Assay [2] has as its target Cys242 in human PIK3CA (157-299) (Homo sapiens (Human), UniProt P42336). Kind of assay: Covalent modification assay using MALDI-TOF MS. It is filed as biochemical. Particulars: 4 h reaction time point; 3.33 μM protein target, 1:7.5 protein to compound ratio (compounds 1-852). Summed up:
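Covalent adduct formation was read by linear-mode MALDI-TOF with sinapinic acid matrix, reported as modified-protein peak height divided by total protein peak heights. Reactions held PIK3CA (157-299) at 1 or 3.33 μM in HEPES/NaCl/MgCl2 buffer, pH 7.3, sampled after 15 min to 4 h at room temperature.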

For another assay, the system named is pAKT in BT474 cells. Kind of assay: Cell-based pAKT HTRF assay in BT474 cells. A digest of the protocol:
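Treatment lasts 4 hr in DMEM/10% FBS at 0.25% DMSO over nine 3-fold dilutions from 3 μM. The lysate is then probed by HTRF.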
On the technique in general: In TR-FRET formats the signal depends on donor and acceptor labels being close together.

Where [3] appears, read: BT474 cells, 4 hr incubation, Compounds 10-999, read-out: pAKT inhibition IC50 in BT474 cells.
Setting [4] is: Homo sapiens, BT-474, BT474 cells, 4 hr incubation, Compounds 10-999, read-out: pAKT inhibition IC50 in BT474 cells.

The record followed here is patent US20250230138A1, “COMPOUNDS HAVING A T-STRUCTURE FORMED BY AT LEAST FOUR CYCLES FOR USE IN THE TREATMENT OF CANCER AND OTHER INDICATIONS” (TheRas, Inc., priority 2022, published 2025).

Structures are written as SMILES. Where two headings read alike, the source gives them in different places. Bounds are passed on as bounds.

For orientation: IC50 means the concentration that gives 50% inhibition.

Sequence of KRAS-PI3Kα interaction (KRAS-Q25A binding to avi-tagged full length PI3Kα) (P42336 whole entry, looked up, stated change not applied): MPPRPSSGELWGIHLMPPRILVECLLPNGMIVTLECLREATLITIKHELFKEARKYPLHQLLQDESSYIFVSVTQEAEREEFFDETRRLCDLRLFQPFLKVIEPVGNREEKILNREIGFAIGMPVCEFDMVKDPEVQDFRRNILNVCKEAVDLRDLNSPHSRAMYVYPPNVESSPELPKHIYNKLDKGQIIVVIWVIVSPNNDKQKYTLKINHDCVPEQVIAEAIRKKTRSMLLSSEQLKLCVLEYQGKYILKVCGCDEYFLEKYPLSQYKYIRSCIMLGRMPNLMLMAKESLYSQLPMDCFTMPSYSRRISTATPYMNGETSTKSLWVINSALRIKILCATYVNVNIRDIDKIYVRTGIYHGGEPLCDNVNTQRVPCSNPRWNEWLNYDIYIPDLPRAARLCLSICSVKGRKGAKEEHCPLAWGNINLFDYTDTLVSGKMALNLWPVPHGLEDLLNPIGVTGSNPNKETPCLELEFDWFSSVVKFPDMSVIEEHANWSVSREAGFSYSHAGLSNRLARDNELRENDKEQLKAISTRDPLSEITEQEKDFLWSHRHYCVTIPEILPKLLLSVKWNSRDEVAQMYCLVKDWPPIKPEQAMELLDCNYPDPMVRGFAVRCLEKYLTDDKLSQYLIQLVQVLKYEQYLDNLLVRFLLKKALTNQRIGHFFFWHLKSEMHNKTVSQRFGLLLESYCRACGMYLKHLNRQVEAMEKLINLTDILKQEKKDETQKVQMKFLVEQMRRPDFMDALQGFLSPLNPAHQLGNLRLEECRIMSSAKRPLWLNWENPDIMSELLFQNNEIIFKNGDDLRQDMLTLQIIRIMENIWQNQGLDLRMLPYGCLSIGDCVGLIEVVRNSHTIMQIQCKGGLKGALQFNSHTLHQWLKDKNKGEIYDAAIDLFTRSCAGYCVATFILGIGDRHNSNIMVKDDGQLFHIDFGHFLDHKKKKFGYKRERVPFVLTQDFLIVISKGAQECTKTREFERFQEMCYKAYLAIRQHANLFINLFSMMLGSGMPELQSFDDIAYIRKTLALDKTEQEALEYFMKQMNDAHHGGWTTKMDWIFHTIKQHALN
Sequence of KRAS-PI3Kα interaction (KRAS-Q25A binding to avi-tagged full length PI3Kα) (P27986 whole entry partner, looked up): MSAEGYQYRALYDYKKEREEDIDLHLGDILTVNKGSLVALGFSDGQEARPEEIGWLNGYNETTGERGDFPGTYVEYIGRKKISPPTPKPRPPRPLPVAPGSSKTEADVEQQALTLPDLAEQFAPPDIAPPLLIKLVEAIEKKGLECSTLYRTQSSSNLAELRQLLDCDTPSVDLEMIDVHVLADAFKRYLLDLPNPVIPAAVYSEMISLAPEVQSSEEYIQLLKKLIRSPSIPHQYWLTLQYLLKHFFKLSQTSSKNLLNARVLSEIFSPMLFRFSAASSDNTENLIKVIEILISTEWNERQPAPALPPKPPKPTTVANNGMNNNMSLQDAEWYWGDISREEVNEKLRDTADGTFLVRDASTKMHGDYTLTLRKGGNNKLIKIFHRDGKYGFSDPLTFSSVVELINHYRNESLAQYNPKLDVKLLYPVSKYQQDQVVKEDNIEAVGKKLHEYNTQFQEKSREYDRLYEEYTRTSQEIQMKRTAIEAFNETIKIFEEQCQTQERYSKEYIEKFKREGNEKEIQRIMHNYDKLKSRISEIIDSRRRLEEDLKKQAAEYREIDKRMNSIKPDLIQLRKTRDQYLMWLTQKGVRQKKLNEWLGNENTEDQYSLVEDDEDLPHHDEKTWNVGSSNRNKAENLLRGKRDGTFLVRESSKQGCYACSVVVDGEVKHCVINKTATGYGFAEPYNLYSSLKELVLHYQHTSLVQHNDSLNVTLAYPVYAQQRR
Sequence of Cys242 in human PIK3CA (157-299) (P42336 157-299): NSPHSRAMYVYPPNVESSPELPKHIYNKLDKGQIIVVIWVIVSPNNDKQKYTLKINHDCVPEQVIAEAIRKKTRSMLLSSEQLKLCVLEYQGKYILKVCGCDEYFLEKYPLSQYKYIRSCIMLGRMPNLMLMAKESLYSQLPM

Turning to `C=CC(=O)N1CCc2ccc(-c3nc(-c4ccc5c(c4)CCNC5)c4ccsc4c3-c3ccc(F)cc3OCCOC)cc2C1` [compound 42], the half-inhibitory concentration (IC50) in assay [1] is less than 5000 nM; in the assay with pAKT in BT474 cells (setting [3]) it was less than 100 nM. In assay [2], the “% of modification” value was “A (percent of modification of PIK3CA protein ≥75%)”.

`C=CC(=O)N1CCCC(n2cc(-c3nc(-c4ccc5c(c4)CCNC5)c4ccsc4c3-c3ccc(F)cc3OCCOC)cn2)C1` (centres unmarked) [compound 31]: the values for the IC50 (in assay [1]; in the assay on pAKT in BT474 cells (setting [3])) were less than 5000 nM and less than 100 nM, respectively. Also, the “% of modification” value in assay [2] is reported as “A (percent of modification of PIK3CA protein ≥75%)”.

As for `C=CC(=O)N1CC[C@H](n2cc(-c3nc(-c4ccc5c(c4)CCNC5)c4ccsc4c3-c3ccc(F)cc3OCCOC)cn2)C1` [compound 47], the figures for the concentration for half-maximal inhibition (IC50) (in assay [1]; in the assay with pAKT in BT474 cells (setting [3])) were 5000 to 25000 nM and less than 100 nM, respectively. The “% of modification” value in assay [2] was “A (percent of modification of PIK3CA protein ≥75%)”.

As to `C=CC(=O)Nc1cccc(-c2nc(-c3ccc4c(c3)CNC(=O)C4)c3ccsc3c2-c2ccc(F)cc2OCCOC)c1` [compound 51], the IC50 in assay [1] was 5000 to 25000 nM; with pAKT in BT474 cells (setting [3]), 100 to 1000 nM. Also, the “% of modification” value in assay [2] was “A (percent of modification of PIK3CA protein ≥75%)”.

On to `C=CC(=O)N1CCc2nc(-c3nc(-c4ccc5c(c4)CCNC5)c4ccsc4c3-c3ccc(F)cc3OCCOC)sc2C1` [Compound 58, 1-[2-[7-[4-fluoro-2-(2-methoxyethoxy)phenyl]-4-(1,2,3,4-tetrahydroisoquinolin-6-yl)thieno[3,2-c]pyridin-6-yl]-6,7-dihydro-4H-thiazolo[5,4-c]pyridin-5-yl]prop-2-en-1-one], for which the IC50 is 5000 to 25000 nM in assay [1]; 1440 nM in the assay with pAKT in BT474 cells (Homo sapiens, BT-474, BT474, free fraction adjusted, read-out: in vitro BT474 pAKT free fraction adjusted IC50); 34 nM with pAKT in BT474 cells (Homo sapiens, BT-474, BT474 cell line, read-out: pAKT (IC50)); less than 100 nM in the assay on pAKT in BT474 cells (setting [4]). In assay [2], the “% of modification” value is given as “A (percent of modification of PIK3CA protein ≥75%)”.

As for `C=CC(=O)N1CC(n2cc(-c3nc(-c4ccc5c(c4)CCNC5)c4ccsc4c3-c3ccc(F)cc3OCCOC)cn2)C1` [Compound 44, 1-[3-[4-[7-[4-fluoro-2-(2-methoxyethoxy)phenyl]-4-(1,2,3,4-tetrahydroisoquinolin-6-yl)thieno[3,2-c]pyridin-6-yl]pyrazol-1-yl]azetidin-1-yl]prop-2-en-1-one], the IC50 is 5000 to 25000 nM in assay [1] and less than 100 nM with pAKT in BT474 cells (setting [4]). The “% of modification” value in assay [2] is on record as “A (percent of modification of PIK3CA protein ≥75%)”.

`C=CC(=O)Nc1cccc(-c2nc(-c3ccc4c(c3)CCNC4)c3ccsc3c2-c2ccc(F)cc2OCCOC)c1` [Compound 12, N-[3-[7-[4-fluoro-2-(2-methoxyethoxy)phenyl]-4-(1,2,3,4-tetrahydroisoquinolin-6-yl)thieno[3,2-c]pyridin-6-yl]phenyl]prop-2-enamide]: the IC50 was less than 5000 nM in assay [1] and 100 to 1000 nM in the assay on pAKT in BT474 cells (setting [4]). Moreover, the “% of modification” value in assay [2] is listed as “A (percent of modification of PIK3CA protein ≥75%)”.
